Entries after “also recorded” stand apart in the source; their conditions may differ. Where no end group is shown, it is not given here.
What was measured:
C. trachomatis LGV-L2 = experiment: Generation of infectious particles (IFU) and inclusion growth in infected HeLa cells; format: cell-based
Method: FIG. 9 depicts (A) CPAF inhibitory peptides block the generation of Chlamydia infectious particles. L2-infected HeLa cells were treated at 12 hpi with increasing concentration of peptides. EBs were harvested at 30 hpi and inclusion-forming units (IFU) were quantified on fresh cell monolayers. (B-D) CPAF activity is required to maintain inclusion integrity. The integrity of the inclusion was determined by assessing the immunolocalization of the inclusion membrane marker IncA (red) and Chlamydia (green) (B) and by transmission electron microscopy (C). […] (D) The percentage of vimentin-positive inclusions was determined by IF in infected cells treated with SEQ ID NO:7 and SEQ ID NO:11 (12 hpi) peptides at 24 hpi. (E) Activation of inflammatory cytokines upon inhibition of CPAF activity. Levels of IL-8 supernatants from Chlamydia infected cells treated with peptides as in (B-D) were determined at 24 hpi by ELISA.
Cells were infected with an MOI of 1 and treated with CPAF inhibitor (SEQ ID NO:7) or control (SEQ ID NO:11) peptides at 12 hpi, fixed at 24 hpi and analyzed by IF with anti-L2 polyclonal antisera. Inclusion size was determined by measuring the inclusion diameter in μm by confocal microscopy of 50 infected cells. The number of cells with fragmented inclusions was determined by counting the number of infected cells out of 50 with more than one inclusion. […]

C. muridarum CPAF = experiment: GST-IncC cleavage by lysate of C. muridarum infected cells; format: biochemical; details: infected whole cell lysate
Method: Cells were infected with an MOI of 1 and treated with CPAF inhibitor (SEQ ID NO:7) or control (SEQ ID NO:11) peptides at 12 hpi, fixed at 24 hpi and analyzed by IF with anti-L2 polyclonal antisera. Inclusion size was determined by measuring the inclusion diameter in μm by confocal microscopy of 50 infected cells. The number of cells with fragmented inclusions was determined by counting the number of infected cells out of 50 with more than one inclusion. (C) Sequence alignment and % sequence identify of full length CPAF and predicted inhibitory peptide sequence between C. trachomatis serovar LGV-L2, Chlamydia muridarum, and Chlamydophila caviae was determined using Geneious software (available at the Geneious website). […] GPIC or C. muridarum infected whole cell protein lysate was preincubated with SEQ ID NO:7 peptide or SEQ ID NO:11 control peptide, mixed with GST-IncC at 37° C., resolved by SDS-PAGE and stained with Coomassie blue. […] Inhibition of C. muridarum (E) and C. ceviae (F) growth was determined by counting the number of recovered IFUs. […] Inclusions were detected by IF with anti-LGV-L2 (A, B, E) antisera or anti-chlamydial LPS (F) monoclonal antibodies, and host nuclei sere detected by staining.

Caspase-1 = Caspase-1 activity in infected cells (FLICA, flow cytometry); format: cell-based, human; details: fluorescently labeled caspase-1 substrate
Method: FIG. 13 depicts (A) that Caspase-1 inhibitors block Chlamydia-mediated cell death. Infected cells were treated with the Caspase-1 inhibitor Ac-YVAD-CMK at 2 hpi, and increasing concentrations of CPAF inhibitor added at 12 hpi. Cells were fixed and the percentage of cells with condensed nuclei determined at 24 hpi. (B) Enhanced Caspase-1 activation in infected cells lacking CPAF activity. Infected cells were labeled with a cell-permeable fluorescent substrate of Caspase-1 and treated with inhibitory peptides, and Caspase-1 activity was monitored by flow cytometry. (C) Caspase-1 and ASC are required for Chlamydia-mediated host cell death. […] Chlamydia replication and generation of IFUs in MLFs was assessed as in FIG. 9. […]
Subsequent experiments tested whether CPAF inhibition led to the onset of apoptosis in infected cells. […] Apoptotic cells were identified with an AnnexinV-FLOUS Staining Kit (available from Roche) and activation of Caspase-1 was determined by labeling active Caspase-1 with a Carboxyfluorescein FLICA Detection Kit (available from Immunochemistry) and analyzed in a FACScanner (available from BD Biosciences). […] Consistent with result, Caspase-3 cleavage, another characteristic of apoptotic cell death, was not detected (FIG. 11C).

CPAF = CPAF (Chlamydia trachomatis serovar D, UniProt O84866); experiment: HPLC-based CPAF inhibition assay with Abz-tagged model substrate (SEQ ID NO:9); format: biochemical, C. trachomatis; parameters: 6xHis; made in house; host or cells: E. coli BL21 (DE3), plasmid pET30b-CPAF
Method: FIG. 1 depicts the results of HPLC-based CPAF inhibition assays using a model CPAF substrate (SEQ ID NO:9) to compare inhibition of CPAF protease activity by SEQ ID NO:7, SEQ ID NO:2, and lactacystin. HPLC-based assays were performed in a final volume of 100 μL containing assay buffer, CPAF (62.5 nM), substrate 1 (0.5 mM), and varying concentrations of inhibitor (0-240 μM).
HPLC-based assays comprised an Abz-tagged model CPAF substrate (SEQ ID NO:9) and were performed in a final volume of 100 μL containing 150 mM NaCl, 50 mM Tris pH 7.50, purified CPAF (62.5 nM), fluorescent-tagged model CPAF substrate (0.5 mM), and varying concentrations of each candidate compound (0-240 μM). IC50 values were determined by pre-incubating CPAF with varying concentrations of candidate compound for 5 min at room temperature prior to initiation of the reaction via the addition of model CPAF substrate. Reactions were allowed to proceed for 90 seconds at 25° C., followed by removal of 80 μL aliquots and quenching by the addition of 1.2 M HCl (40 μL). Data were converted to percent activity relative to a control reaction without candidate compound and fit to the following equation using GraFit v6.0, where [I] is the concentration of candidate compound and s is a slope factor: […]

Sequence of CPAF (O84866 276-601): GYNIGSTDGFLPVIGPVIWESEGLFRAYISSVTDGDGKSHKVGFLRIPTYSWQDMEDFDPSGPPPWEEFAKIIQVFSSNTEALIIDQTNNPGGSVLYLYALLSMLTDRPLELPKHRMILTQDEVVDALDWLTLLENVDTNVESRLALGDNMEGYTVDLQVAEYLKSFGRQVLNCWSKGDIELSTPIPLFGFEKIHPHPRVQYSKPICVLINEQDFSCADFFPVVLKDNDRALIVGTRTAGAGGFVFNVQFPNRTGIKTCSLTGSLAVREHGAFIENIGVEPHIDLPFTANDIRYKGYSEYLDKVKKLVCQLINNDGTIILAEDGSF
Sequence of CPAF (O84866 1-234, added parts left off): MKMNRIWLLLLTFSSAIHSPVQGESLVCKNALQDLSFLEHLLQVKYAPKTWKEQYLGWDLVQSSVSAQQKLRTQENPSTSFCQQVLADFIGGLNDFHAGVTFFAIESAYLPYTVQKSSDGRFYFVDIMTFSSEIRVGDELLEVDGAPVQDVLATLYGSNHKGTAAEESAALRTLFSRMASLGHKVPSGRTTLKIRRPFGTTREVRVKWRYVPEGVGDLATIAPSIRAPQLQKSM

Substance: SLFYSPMVPHFWAELRNHYATSGLKRRRRRRRRR-NH2 [SEQ ID NO:7]
- Yields of EBs (IFU) (C. trachomatis LGV-L2; L2-infected HeLa, peptide at 12 hpi, EBs harvested 30 hpi): significantly lowered yields of EBs
- Inclusion growth (C. trachomatis LGV-L2; MOI 1, peptide at 12 hpi, fixed 24 hpi): stunted inclusion growth
- Inhibition of substrate cleavage by C. muridarum CPAF (C. muridarum CPAF): prevented cleavage of substrate; also recorded: inhibits C. muridarum CPAF
- Caspase-1 activity in infected cells (Caspase-1): significantly increased
- IC50 (CPAF; CPAF 62.5 nM, substrate SEQ ID NO:9 0.5 mM, inhibitor 0-240 μM): 50 ± 7 nM
- CPAF inhibition relative to SEQ ID NO:2 (CPAF; HPLC-based assay, greater than SEQ ID NO:2): about 30 fold
- CPAF inhibition relative to lactacystin (CPAF; HPLC-based assay, greater than lactacystin): about 200 fold
